Experimental data published in ChEMBL document CHEMBL2203286, “Synthesis and structure-activity relationship studies of cytotoxic vinorelbine amide analogues” (Bioorg Med Chem Lett, 2012).

Legend:
A549 [1] = experiment: Cytotoxicity against human A549 cells after 24 to 72 hrs by MTT assay; assay type: functional, cell-based
A549 [2] = experiment: Ratio of navelbine IC50 to compound IC50 for human A549 cells; assay type: functional
A549 [3] = experiment: Antitumor activity against human A549 cells xenografted in BALB/cA nude mouse assessed as growth inhibition at 9 mg/kg, iv once every seven days for three doses relative to control; conditions: read-out: GI
Mus musculus [4] = experiment: Toxicity in BALB/cA nude mouse xenografted with human A549 cells assessed as mortality at 9 mg/kg, iv […]; assay type: organism-based; design: dose 9 mg/kg, route intravenous; conditions: in vivo
Mus musculus [5] = experiment: Toxicity in BALB/cA nude mouse xenografted with human A549 cells assessed as change in body weight at 9 mg/kg, iv once every seven days for three doses (reference value: 27.61 g); conditions: in vivo

Structure (SMILES) | IC50 (A549 [1]) | further results
CCCCC(=O)NC[C@@]1(O)[C@H](OC(C)=O)[C@]2(CC)C=CCN3CC[C@@]4(c5cc([C@@]6(C(=O)OC)C[C@@H]7C=C(CC)CN(Cc8c6[nH]c6ccccc86)C7)c(OC)cc5N(C)[C@@H]14)[C@@H]32 | 22.1 nM | –
CCC1=C[C@@H]2CN(C1)Cc1c([nH]c3ccccc13)[C@@](C(=O)OC)(c1cc3c(cc1OC)N(C)[C@H]1[C@@](O)(CNC(=O)C(C)C)[C@H](OC(C)=O)[C@]4(CC)C=CCN5CC[C@]31[C@@H]54)C2 | 11.4 nM | –
CCC1=C[C@@H]2CN(C1)Cc1c([nH]c3ccccc13)[C@@](C(=O)OC)(c1cc3c(cc1OC)N(C)[C@H]1[C@@](O)(CNC(=O)CC(C)C)[C@H](OC(C)=O)[C@]4(CC)C=CCN5CC[C@]31[C@@H]54)C2 | 22 nM | –
CCC1=C[C@@H]2CN(C1)Cc1c([nH]c3ccccc13)[C@@](C(=O)OC)(c1cc3c(cc1OC)N(C)[C@H]1[C@@](O)(CNC(=O)C(C)(C)C)[C@H](OC(C)=O)[C@]4(CC)C=CCN5CC[C@]31[C@@H]54)C2 | 37 nM | –
CCC1=C[C@@H]2CN(C1)Cc1c([nH]c3ccccc13)[C@@](C(=O)OC)(c1cc3c(cc1OC)N(C)[C@H]1[C@@](O)(CNC(=O)C4CC4)[C@H](OC(C)=O)[C@]4(CC)C=CCN5CC[C@]31[C@@H]54)C2.O=C(O)C(O)C(O)C(=O)O | 3 nM | Ratio IC50 (A549 [2]): 3; inhibition in vivo at 9 mg/kg (A549 [3]): 18%; Activity (Mus musculus [4]): Non-toxic; Activity (Mus musculus [5]): 26.53 g
CCC(=O)NC[C@@]1(O)[C@H](OC(=O)CC)[C@]2(CC)C=CCN3CC[C@@]4(c5cc([C@@]6(C(=O)OC)C[C@@H]7C=C(CC)CN(Cc8c6[nH]c6ccccc86)C7)c(OC)cc5N(C)[C@@H]14)[C@@H]32 | 12 nM | –
CCC1=C[C@@H]2CN(C1)Cc1c([nH]c3ccccc13)[C@@](C(=O)OC)(c1cc3c(cc1OC)N(C)[C@H]1[C@@](O)(CNC(=O)Cc4ccccc4)[C@H](OC(C)=O)[C@]4(CC)C=CCN5CC[C@]31[C@@H]54)C2 | 16.2 nM | –
CCC1=C[C@@H]2CN(C1)Cc1c([nH]c3ccccc13)[C@@](C(=O)OC)(c1cc3c(cc1OC)N(C)[C@H]1[C@@](O)(CNC(=O)c4ccccc4)[C@H](OC(C)=O)[C@]4(CC)C=CCN5CC[C@]31[C@@H]54)C2.O=C(O)C(O)C(O)C(=O)O | 5 nM | inhibition in vivo at 9 mg/kg (A549 [3]): 43.5%; Activity (Mus musculus [4]): Non-toxic; Activity (Mus musculus [5]): 24.6 g
CCC1=C[C@@H]2CN(C1)Cc1c([nH]c3ccccc13)[C@@](C(=O)OC)(c1cc3c(cc1OC)N(C)[C@H]1[C@@](O)(CNC(=O)c4ccc(C)cc4)[C@H](OC(C)=O)[C@]4(CC)C=CCN5CC[C@]31[C@@H]54)C2 | 15.3 nM | –
CCC1=C[C@@H]2CN(C1)Cc1c([nH]c3ccccc13)[C@@](C(=O)OC)(c1cc3c(cc1OC)N(C)[C@H]1[C@@](O)(CNC(=O)c4cccc(C)c4)[C@H](OC(C)=O)[C@]4(CC)C=CCN5CC[C@]31[C@@H]54)C2 | 17.2 nM | –
CCC1=C[C@@H]2CN(C1)Cc1c([nH]c3ccccc13)[C@@](C(=O)OC)(c1cc3c(cc1OC)N(C)[C@H]1[C@@](O)(CNC(=O)c4ccc(F)cc4)[C@H](OC(C)=O)[C@]4(CC)C=CCN5CC[C@]31[C@@H]54)C2 | 6.6 nM | –
CCC1=C[C@@H]2CN(C1)Cc1c([nH]c3ccccc13)[C@@](C(=O)OC)(c1cc3c(cc1OC)N(C)[C@H]1[C@@](O)(CNC(=O)c4ccccc4F)[C@H](OC(C)=O)[C@]4(CC)C=CCN5CC[C@]31[C@@H]54)C2 | 7.3 nM | –
CCC1=C[C@@H]2CN(C1)Cc1c([nH]c3ccccc13)[C@@](C(=O)OC)(c1cc3c(cc1OC)N(C)[C@H]1[C@@](O)(CNC(=O)c4c(F)cccc4F)[C@H](OC(C)=O)[C@]4(CC)C=CCN5CC[C@]31[C@@H]54)C2 | 7.9 nM | –
CCC1=C[C@@H]2CN(C1)Cc1c([nH]c3ccccc13)[C@@](C(=O)OC)(c1cc3c(cc1OC)N(C)[C@H]1[C@@](O)(CNC(=O)c4cccc(OC)c4)[C@H](OC(C)=O)[C@]4(CC)C=CCN5CC[C@]31[C@@H]54)C2 | 6.3 nM | –
CCC1=C[C@@H]2CN(C1)Cc1c([nH]c3ccccc13)[C@@](C(=O)OC)(c1cc3c(cc1OC)N(C)[C@H]1[C@@](O)(CNC(=O)c4ccc(OC)c(OC)c4)[C@H](OC(C)=O)[C@]4(CC)C=CCN5CC[C@]31[C@@H]54)C2 | 6.5 nM | –
CCC1=C[C@@H]2CN(C1)Cc1c([nH]c3ccccc13)[C@@](C(=O)OC)(c1cc3c(cc1OC)N(C)[C@H]1[C@@](O)(CNC(=O)c4ccc(Cl)cc4)[C@H](OC(C)=O)[C@]4(CC)C=CCN5CC[C@]31[C@@H]54)C2 | 25.6 nM | –
CCC1=C[C@@H]2CN(C1)Cc1c([nH]c3ccccc13)[C@@](C(=O)OC)(c1cc3c(cc1OC)N(C)[C@H]1[C@@](O)(CNC(=O)c4ccc(C(F)(F)F)cc4)[C@H](OC(C)=O)[C@]4(CC)C=CCN5CC[C@]31[C@@H]54)C2 | 20.7 nM | –
CCC1=C[C@@H]2CN(C1)Cc1c([nH]c3ccccc13)[C@@](C(=O)OC)(c1cc3c(cc1OC)N(C)[C@H]1[C@@](O)(CNC(=O)c4ccc([N+](=O)[O-])cc4)[C@H](OC(C)=O)[C@]4(CC)C=CCN5CC[C@]31[C@@H]54)C2 | 41.1 nM | –
CCC1=C[C@@H]2CN(C1)Cc1c([nH]c3ccccc13)[C@@](C(=O)OC)(c1cc3c(cc1OC)N(C)[C@H]1[C@@](O)(CNC(=O)c4ccco4)[C@H](OC(C)=O)[C@]4(CC)C=CCN5CC[C@]31[C@@H]54)C2.O=C(O)C(O)C(O)C(=O)O | 3.2 nM | inhibition in vivo at 9 mg/kg (A549 [3]): 58%; Activity (Mus musculus [5]): 25.45 g
CCC1=C[C@@H]2CN(C1)Cc1c([nH]c3ccccc13)[C@@](C(=O)OC)(c1cc3c(cc1OC)N(C)[C@H]1[C@@](O)(CNC(=O)c4ccncc4)[C@H](OC(C)=O)[C@]4(CC)C=CCN5CC[C@]31[C@@H]54)C2 | 8.1 nM | –
CCC1=C[C@@H]2CN(C1)Cc1c([nH]c3ccccc13)[C@@](C(=O)OC)(c1cc3c(cc1OC)N(C)[C@H]1[C@@](O)(CNC(C)=O)[C@H](OC(C)=O)[C@]4(CC)C=CCN5CC[C@]31[C@@H]54)C2 | 24.5 nM | –
CCCC(=O)NC[C@@]1(O)[C@H](OC(C)=O)[C@]2(CC)C=CCN3CC[C@@]4(c5cc([C@@]6(C(=O)OC)C[C@@H]7C=C(CC)CN(Cc8c6[nH]c6ccccc86)C7)c(OC)cc5N(C)[C@@H]14)[C@@H]32 | 17.3 nM | –
CCC(=O)NC[C@@]1(O)[C@H](OC(C)=O)[C@]2(CC)C=CCN3CC[C@@]4(c5cc([C@@]6(C(=O)OC)C[C@@H]7C=C(CC)CN(Cc8c6[nH]c6ccccc86)C7)c(OC)cc5N(C)[C@@H]14)[C@@H]32 | 15.6 nM | –
CCC1=C[C@@H]2CN(C1)Cc1c([nH]c3ccccc13)[C@@](C(=O)OC)(c1cc3c(cc1OC)N(C)[C@H]1[C@@](O)(C(=O)OC)[C@H](OC(C)=O)[C@]4(CC)C=CCN5CC[C@]31[C@@H]54)C2 [VINORELBINE] | 9 nM | inhibition in vivo at 9 mg/kg (A549 [3]): 55.9%; Activity (Mus musculus [4]): Non-toxic; Activity (Mus musculus [5]): 26.22 g
